target: T1, Solute carrier organic anion transporter family member (Danio rerio, UniProt A0A8M9PU70); experiment: Oatp1d1 Transport Assay
T1 sequence (A0A8M9PU70 whole entry): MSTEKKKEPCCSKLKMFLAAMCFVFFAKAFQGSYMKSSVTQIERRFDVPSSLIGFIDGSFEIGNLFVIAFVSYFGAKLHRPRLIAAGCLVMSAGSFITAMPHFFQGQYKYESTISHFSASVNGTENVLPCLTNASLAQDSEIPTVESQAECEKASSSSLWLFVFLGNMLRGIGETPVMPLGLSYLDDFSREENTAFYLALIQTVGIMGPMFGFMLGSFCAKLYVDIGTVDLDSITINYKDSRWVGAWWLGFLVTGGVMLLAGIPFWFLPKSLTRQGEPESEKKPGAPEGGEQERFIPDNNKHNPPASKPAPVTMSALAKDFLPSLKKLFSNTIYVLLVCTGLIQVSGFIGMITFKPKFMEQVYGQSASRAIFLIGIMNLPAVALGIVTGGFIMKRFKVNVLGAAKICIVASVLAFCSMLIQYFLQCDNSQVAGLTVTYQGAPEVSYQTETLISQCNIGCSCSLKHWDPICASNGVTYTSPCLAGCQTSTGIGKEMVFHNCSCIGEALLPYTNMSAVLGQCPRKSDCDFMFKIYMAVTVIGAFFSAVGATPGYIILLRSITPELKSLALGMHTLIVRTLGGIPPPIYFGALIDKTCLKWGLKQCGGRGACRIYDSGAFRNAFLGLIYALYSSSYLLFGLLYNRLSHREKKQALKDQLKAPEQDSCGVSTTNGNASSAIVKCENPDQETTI
Protocol: (§1) In the inhibition experiments, the cells were preincubated for 20 s with test compounds, followed by a 5-min incubation with [3H]E3S (5 nM) or 30-min incubation with LY (5 μM).

Row | SMILES | Ki [µM]
1 | CCCN(CCC)S(=O)(=O)c1ccc(C(=O)O)cc1 | 26
2 | CC[C@H]1OC(=O)[C@H](C)[C@@H](O[C@H]2C[C@@](C)(OC)[C@@H](O)[C@H](C)O2)[C@H](C)[C@@H](O[C@@H]2O[C@H](C)C[C@H](N(C)C)[C@H]2O)[C@](C)(O)C[C@@H](C)C(=O)[C@H](C)[C@@H](O)[C@]1(C)O | 882
3 | C[C@H](CCC(=O)NCCS(=O)(=O)O)[C@H]1CC[C@H]2[C@@H]3[C@H](O)C[C@@H]4C[C@H](O)CC[C@]4(C)[C@H]3CC[C@]12C | 3.4
4 | CC(=O)[C@H]1CC[C@H]2[C@@H]3CCC4=CC(=O)CC[C@]4(C)[C@H]3CC[C@]12C | 9.06
5 | CC(=O)C[C@H](c1ccccc1)c1c(O)c2ccccc2oc1=O [2-hydroxy-3-(3-oxo-1-phenylbutyl)-4H-chromen-4-one] | 0.36
6 | Cc1ccc(C)c(OCCCC(C)(C)C(=O)O)c1 [5-(2,5-dimethylphenoxy)-2,2-dimethylpentanoic acid] | 7.44
7 | C[C@]12C[C@H](O)[C@H]3[C@@H](CCC4=CC(=O)CC[C@@]43C)[C@@H]1CC[C@@H]2C(=O)CO [11beta,21-dihydroxypregn-4-ene-3,20-dione] | 105
8 | C[C@]12CC[C@@H]3c4ccc(O)cc4CC[C@H]3[C@@H]1CC[C@@H]2O[C@@H]1O[C@H](C(=O)O)[C@@H](O)[C@H](O)[C@H]1O [17beta-Estradiol-17-(beta-D-glucuronide)] | 3.26
9 | CC[C@H](C)C(=O)O[C@H]1C[C@H](O)C=C2C=C[C@H](C)[C@H](CC[C@@H](O)C[C@@H](O)CC(=O)O)[C@H]21 [(3R,5R)-7-[(1S,2S,6S,8S,8aR)-6-hydroxy-2-methyl-8-{[(2S)-2-methylbutanoyl]oxy}-1,2,6,7,8,8a-hexahydronaphthalen-1-yl]-3,5-dihydroxyheptanoic acid] | 9.27
10 | C[C@]12CCC(=O)C=C1CC[C@@H]1[C@@H]2CC[C@]2(C)C(=O)CC[C@@H]12 [Androst-4-en-3,17-dione, 2] | 3.78
11 | C=CC1=C(C)/C(=C/c2[nH]c(Cc3[nH]c(/C=C4\NC(=O)C(C)=C4C=C)c(C)c3CCC(=O)O)c(CCC(=O)O)c2C)NC1=O [BILIRUBIN] | 14.5
12 | O=C1OC(c2ccc(O)c(S(=O)(=O)O)c2)(c2ccc(O)c(S(=O)(=O)O)c2)c2c(Br)c(Br)c(Br)c(Br)c21 [BROMOSULFOPHTHALEIN] | 2.99
13 | CC(C)(Oc1ccc(CCNC(=O)c2ccc(Cl)cc2)cc1)C(=O)O [Cedur] | 40.4
14 | C[C@H](CCC(=O)O)[C@H]1CC[C@H]2[C@@H]3[C@H](O)C[C@@H]4C[C@H](O)CC[C@]4(C)[C@H]3C[C@H](O)[C@]12C [Cholic Acid] | 141
15 | C[C@]12CCC(=O)C[C@@H]1CC[C@@H]1[C@@H]2CC[C@]2(C)[C@@H](O)CC[C@@H]12 [DHT] | 23.4
16 | CCCCC[C@H](O)/C=C/[C@H]1[C@H](O)CC(=O)[C@@H]1C/C=C\CCCC(=O)O [DINOPROSTONE] | 227
17 | C[C@H](CCC(=O)O)[C@H]1CC[C@H]2[C@@H]3CC[C@@H]4C[C@H](O)CC[C@]4(C)[C@H]3C[C@H](O)[C@]12C [Deoxycholic Acid] | 9.94
18 | C[C@]12CC[C@@H]3c4ccc(OS(=O)(=O)O)cc4CC[C@H]3[C@@H]1CCC2=O [Estrone Sulphate] | 1.01
19 | CC(C)OC(=O)C(C)(C)Oc1ccc(C(=O)c2ccc(Cl)cc2)cc1 [Finofibrate] | 54.4
20 | CN(Cc1cnc2nc(N)nc(N)c2n1)c1ccc(C(=O)N[C@@H](CCC(=O)O)C(=O)O)cc1 [MTX] | 222
21 | CO[C@H]1/C=C/O[C@@]2(C)Oc3c(C)c(O)c4c(c3C2=O)C(=O)/C(=C/NN2CCN(C)CC2)C(=C4O)NC(=O)/C(C)=C\C=C\[C@H](C)[C@H](O)[C@@H](C)[C@@H](O)[C@@H](C)[C@H](OC(C)=O)[C@@H]1C [Rifampicin] | 12.7
22 | C[C@]12CC[C@H]3[C@@H](CCC4=CC(=O)CC[C@@]43C)[C@@H]1CC[C@@H]2O [Testosterone, 1] | 30
23 | C[C@]12CC[C@@H]3c4ccc(O)cc4CC[C@H]3[C@@H]1CC[C@@H]2O [[2,4,6,7-3H]-17beta-estradiol] | 2.83
24 | C[C@]12CCC(=O)C=C1CC[C@@H]1[C@@H]2[C@@H](O)C[C@@]2(C)[C@H]1CC[C@]2(O)C(=O)CO [[3H]cortisol] | 120
25 | N[C@@H](Cc1cc(I)c(Oc2ccc(O)c(I)c2)c(I)c1)C(=O)O [triothyrone] | 42.7

target: T2, Solute carrier organic anion transporter family member [3-691] (Zebrafish, UniProt A0A0R4IW35); experiment: Oatp1d1 Transport Assay
T2 construct: 3-691
T2 sequence (A0A0R4IW35 whole entry): T1 sequence (A0A8M9PU70 whole entry)
Protocol: as §1

Row | SMILES | Ki [µM]
26 | CCOC(=O)C(C)(C)Oc1ccc(Cl)cc1 [2-(4-Chlorophenoxy)-2-methylpropanoic acid ethyl ester] | 345
